Test results as given in patent US20170065561A1, “METHODS OF CANCER THERAPY” (CAMBRIDGE ENTERPRISE LIMITED, priority 2014, published 2017).
Entries after “also recorded” stand apart in the source; their conditions may differ.

Assays:
[1] = test system: type 1 (non-neuronopathic) Gaucher disease; settings: type 1 Gaucher disease; cited from earlier work
[2] = test system: plasma glucosylceramide (GL-1); assay: Short-term dose-range experiment in GD mice: plasma glucosylceramide; format: in vivo, mouse; settings: 6 week-old GD mice, 150 mg/kg and 300 mg/kg orally for two weeks
Procedure: (§1) The inducible mouse model of type 1 Gaucher disease [Gba^tm1Karl/tm1KarlTg (Mx1-cre) 1Cgn/0 (MGI:3687965; MGI:2176073)[41]. The mating, induction with polyinosinic-polycytidylic (poly I:C) acid sodium salt solution and genotyping were conducted as previously described. Animals of genotype Gba^tm1Karl/tm1KarlTg (Mx1-cre) 1Cgn/0 are referred GD mice; induced mice with the Gba^tm1Karl/tm1Karl and Gba^tm1Karl/+ genotypes and background strain wild type animals served as age-matched controls. All mice here reported had been bred on a C57BL/6 and 129/sv background.
The drug GENZ 112638 (Genzyme) was formulated in a standard rodent food (TestDiet) at 0.075% and 0.15% w/w. A group of six GD mice received 150 mg/kg daily, a second group of six GD mice received the drug at 300 mg/kg daily, and eight age-sex matched GD animals were given a base diet (TestDiet). The animals received the drug for 14 days and were then killed for analysis of tissue lipids.
(§2) Concentrations of β-D-glucosylceramide in plasma in the short-term tolerability study were conducted as previously published. β-D-glucosylceramide, β-D-glucosylsphingosine and ceramide concentrations in tissues and plasma samples of the principal intervention and delayed-treatment experiments were quantified as previously reported.

[3] = test system: plasma β-D-glucosylsphingosine; assay: Main treatment experiments in GD mice: plasma glucosylsphingosine; format: in vivo, mouse; settings: for plasma glucosylsphingosine: GD mice with intermittent treatment; for reduction of plasma glucosylsphingosine: 300 mg/kg/day
Procedure: as §1
(§3) GENZ 112638 was introduced at a mean age of 1.5 months, with access to the diet and water ad libitum. All experimental animals were housed in individually ventilated cages in groups of up to three mice within the same environmental conditions. The health of the animals was checked daily; body weights and food consumption were monitored at intervals of three days. The humane endpoints were approved and established: (i) reduction of 20% or more of the greatest recorded body weight or (ii) the development of adverse manifestations (e.g. development of frank tumours or cachexia).
as §2

[4] = test system: plasma β-D-glucosylceramide; assay: Main treatment experiments in GD mice: plasma glucosylceramide; format: in vivo, mouse
Procedure: as §1, §3, §2

plasma ceramide = assay: Main treatment experiments in GD mice: plasma ceramide; format: in vivo, mouse; settings: GD mice receiving the high dose
Procedure: as §1
as §3, with “All experimental animals were housed in individually ventilated cages in groups of up to three mice within the same environmental conditions.” left out
as §2

[5] = mouse, in vivo, 300 mg/kg
Excerpt: as §3

Gaucher mice [6] = assay: Main treatment experiments: lymphoma incidence in Gaucher mice; format: in vivo, mouse
Procedure: (§4) The non-parametric Mann-Whitney test was used for between-groups comparisons. The Fisher's exact test was used for comparison of the occurrence of lymphoma or plasma paraprotein in treated and untreated groups. Statistical analyses were conducted using GraphPad Prism v5.0 software.

Gaucher mice [7] = assay: Main treatment experiments: plasma/serum protein electrophoresis and immunofixation (monoclonal immunoglobulin species); format: in vivo, mouse; settings: for detectable monoclonal paraprotein species: GD mice, early administration from six weeks of age; for M-protein (number of mice): 300 mg/Kg daily months 1.5-12
Procedure: (§5) Plasma/serum protein electrophoresis was carried out in agarose gels using a semiautomatic system (Hydrasys, Sebia) using 10 μL samples of neat serum or plasma. Immunofixation using polyclonal anti-sera raised against murine heavy and light immunoglobulin chains was conducted with diluted serum samples as previously reported.
as §4

plasma IgG = assay: Total IgG plasma concentrations (ELISA); format: in vivo, mouse; settings: treated GD mice
Excerpt: Total IgG ELISA kit (Affimetrix) was used to determine plasma IgG concentrations in selected groups of animals.

plasma glucosylceramide = assay: Delayed treatment experiments: plasma glucosylceramide; format: in vivo, mouse; settings: delayed treatment: mean age 7.3 months, 300 mg/kg daily for 5.4 months
Procedure: (§6) To investigate the potential effects of delayed treatment, eight Gaucher mice were exposed to Genz-112638 after 6 months of age. The animals received the drug for 6 months at a dose 300 mg/kg daily and were killed at 12 months of age (FIG. 1). A group of eight matched Gaucher disease control mice were given the base standard diet; these animals were monitored and otherwise treated identically with those animals with delayed exposure to the study drug.
as §2

[8] = test system: plasma glucosylsphingosine; assay: Delayed treatment experiments: plasma glucosylsphingosine; format: in vivo, mouse; settings: delayed treatment: mean age 7.3 months, 300 mg/kg daily for 5.4 months
Procedure: as §6, §2

GD mice [9] = assay: Delayed treatment experiments: lymphoid hyperplasia and lymphoma (histology); format: in vivo, mouse; settings: delayed treatment: 300 mg/Kg daily, mean age 7.3 months, 5.4 months, total 9 mice
Procedure: as §6

GD mice [10] = assay: Delayed treatment experiments: M protein species (electrophoresis and immunofixation); format: in vivo, mouse; settings: delayed treatment: 300 mg/Kg daily months 7-12, age group 12-18 months
Procedure: as §6, §5

[11] = molecular target: T1, UDP-glucosylceramide synthase (Homo sapiens, UniProt Q16739); settings: read-out: IC50 (potency, UDP-glucosylceramide synthase); cited from earlier work
T1 sequence (Q16739 1-394): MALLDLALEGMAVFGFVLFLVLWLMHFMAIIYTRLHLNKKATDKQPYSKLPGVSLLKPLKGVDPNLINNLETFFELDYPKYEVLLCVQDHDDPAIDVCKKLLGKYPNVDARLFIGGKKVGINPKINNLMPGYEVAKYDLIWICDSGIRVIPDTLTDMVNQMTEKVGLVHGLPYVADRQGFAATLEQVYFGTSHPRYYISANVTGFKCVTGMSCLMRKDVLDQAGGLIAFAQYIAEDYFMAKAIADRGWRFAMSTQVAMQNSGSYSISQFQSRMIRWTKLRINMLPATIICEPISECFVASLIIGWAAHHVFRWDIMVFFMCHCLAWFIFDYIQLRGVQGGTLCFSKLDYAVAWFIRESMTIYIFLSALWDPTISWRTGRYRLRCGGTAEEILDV

[12] = molecular target: T2, 1-O-acylceramide synthase (Homo sapiens, UniProt Q8NCC3); settings: cited from earlier work
T2 sequence (Q8NCC3 34-412): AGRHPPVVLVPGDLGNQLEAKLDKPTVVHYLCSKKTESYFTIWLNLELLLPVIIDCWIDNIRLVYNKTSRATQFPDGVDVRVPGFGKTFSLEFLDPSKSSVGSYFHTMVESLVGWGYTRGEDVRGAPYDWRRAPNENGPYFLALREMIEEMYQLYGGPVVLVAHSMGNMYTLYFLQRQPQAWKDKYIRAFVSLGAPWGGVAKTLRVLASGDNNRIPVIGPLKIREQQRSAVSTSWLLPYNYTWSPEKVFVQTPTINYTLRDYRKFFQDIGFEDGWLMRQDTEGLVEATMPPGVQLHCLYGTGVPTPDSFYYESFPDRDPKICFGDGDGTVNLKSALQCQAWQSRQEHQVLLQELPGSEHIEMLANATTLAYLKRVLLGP

intracellular ceramide = settings: cited from earlier work
[13] = test system: glycosidases and other enzymes involved in sphingolipid metabolism; settings: in vitro; cited from earlier work
[14] = test system: (GBA^D409/null) knock-in model of Gaucher disease; settings: 75 or 150 mg/kg daily orally for 10 weeks, cited from earlier work
[15] = test system: individuals with non-neuronopathic Gaucher disease; settings: Phase III, over two years, oral; cited from earlier work
[16] = test system: AKT protein kinase-mammalian target of rapamycin signaling; settings: polycystic kidney disease; cited from earlier work
[17] = in vivo; cited from earlier work
GD mice [18] = assay: Main treatment experiments: histology and immunohistochemistry of tissues; settings: for plasma-cell (CD138+) infiltration in the red pulp of the spleen: treated versus age-matched untreated GD mice
Procedure: A total of 22 induced Gaucher disease mice received GENZ 112638 at 300 mg/kg daily: four mice received the treatment over 3 months, four mice received the drug for 6 months, six mice received the diet for 7-9 months. […] A group of 8 mice received the drug for 10 months and were killed at 14 months of age. To serve as a control group, 45 age- and sex-matched induced Gaucher mice were given a standard diet.
Visceral organs (spleen, liver, lungs and kidneys) as well as long bones, lymph nodes, and, where relevant, tumours, were collected by dissection and either frozen or fixed in 4% w/v paraformaldehyde or 10% buffered formalin and processed in paraffin-embedded blocks for further analysis. Sample of long bones were fixed in 4% w/v paraformaldehyde and decalcified in EDTA for two weeks. Spleen and liver weights were recorded fresh at post mortem. Samples of venous blood were collected from the tail vein at 3 monthly intervals during the experimental protocol. Complete blood counts (CBC) were determined using an automated haematology analyser (SYSMEX XT 2000i). EDTA plasma or serum samples collected at post mortem were stored at −80° C. until thawed for analysis.
Paraffin-embedded sections of 3.5 μm were stained routinely with haematoxylin and eosin. Immunohistochemical staining was carried out using rat anti-mouse CD45R/B220 (R&D systems), anti-mouse CD3 (Abcam), CD138 (BD, Pharmingen), rat anti-mouse Mac-3 M3/84 clone (BD, Pharmingen) and rabbit anti-mouse Ki-67 (Abcam) primary antibodies. Staining was realized by the avidin-biotin peroxidase technique (Vectastatin ABC elite kit), and developed using diaminobenzidine with cresyl violet or haematoxylin counterstaining.
Lymphoproliferation in serial sections of spleen, liver, lungs and kidneys was estimated by a scoring system modified as described by Elmore [42]. Sections were reviewed blindly for lymphoma and lymphoproliferative reactions by a board-certified veterinary pathologist.

[19] = age group 0-6 months, total 4 mice
[20] = age group 7-12 months, total 10 mice
[21] = age group 13-18 months, total 8 mice

CCCCN1C[C@H](O)[C@@H](O)[C@H](O)[C@H]1CO [N-butyldeoxynojirimycin]
therapeutic action in clinical studies [1]: small therapeutic action

bis{N-[(1R,2R)-2-(2,3-dihydro-1,4-benzodioxin-6-yl)-2-hydroxy-1-(pyrrolidin-1-ylmethyl)ethyl]octanamide} (2R,3R)-2,3-dihydroxybutanedioate [eliglustat tartrate]
plasma glucosylceramide (GL-1) concentration [2]: decrease the concentration of glucosylceramide | plasma glucosylceramide (GL-1) concentration ([2]; listed as GENZ 112638): dose-dependent decrease | plasma glucosylsphingosine ([3]; listed as GENZ 112638): raised above the reference range | plasma glucosylsphingosine ([3]; listed as Genz-112638): not significantly different | plasma β-D-glucosylsphingosine concentration ([3]; GD mice, 300 mg/kg daily, early continuous treatment, listed as GENZ 112638, 300 mg/kg): decreased; also recorded: notable decrease | reduction of plasma glucosylsphingosine ([3]; GD mice, after 6 months of treatment, p<0.01): ~5 fold | reduction of plasma glucosylsphingosine ([3]; GD mice, after 9 months of treatment, p<0.05): ~2 fold | glucosylceramide concentration in plasma ([4]; GD mice with intermittent treatment for 10 months, listed as GENZ 112638): raised above the reference range | glucosylceramide concentration in plasma ([4]; GD mice with intermittent treatment for 10 months, listed as Genz-112638): increased plasma concentration | plasma β-D-glucosylceramide concentration ([4]; GD mice, 300 mg/kg daily, early continuous treatment): decreased | glucosylceramide concentration in plasma ([4]; GD mice, after 10 months treatment, p<0.01): reduced | glucosylceramide/ceramide ratio ([4]; treated GD animals compared with untreated): markedly diminished | mean plasma ceramide concentrations (plasma ceramide): slightly increased | animals withdrawn early from the study as a result of weight loss [5]: Two | occurrence of B cell lymphoma, myeloma or other tumours (Gaucher mice [6]; 22 Gaucher mice exposed for 2-10 months, 300 mg/kg, early administration, listed as GENZ 112638, 300 mg/kg): No B cell lymphomas or other tumours were found; also recorded: completely prevented | Lymphoma (number of mice) (Gaucher mice [6]; [19]): 0 | Lymphoma (number of mice) (Gaucher mice [6]; [20]): 0 | Lymphoma (number of mice) (Gaucher mice [6]; [21]): 0 | Lymphoma (number of mice) (Gaucher mice [6]; all age groups, total 22 mice): 0 | detectable monoclonal paraprotein species (Gaucher mice [7]; listed as GENZ 112638): suppressed the appearance | detectable monoclonal paraprotein species (Gaucher mice [7]; listed as Genz-112638): none and prevents development of monoclonal paraproteins | M-protein (number of mice) (Gaucher mice [7]; [19]): 0 | M-protein (number of mice) (Gaucher mice [7]; [20]): 0 | M-protein (number of mice) (Gaucher mice [7]; [21]): 0 | M-protein (number of mice) (Gaucher mice [7]; all age groups, total 22 mice): 0 | total plasma immunoglobulin G concentrations (plasma IgG): decreased significantly | plasma concentration of glucosylceramide (plasma glucosylceramide): decreased | plasma concentration of glucosylsphingosine [8]: decreased | Lymphoid hyperplasia (number of mice) (GD mice [9]): 4 | Lymphoma/myeloma (number of mice) (GD mice [9]): 1 | Lymphoid hyperplasia (number of mice) (GD mice [9]; listed as GENZ 112638): five | Lymphoma/myeloma (number of mice) (GD mice [9]; listed as GENZ 112638): one and did not completely prevent | M protein (number of mice with monoclonal paraprotein or oligoclonal immunoglobulin secretion) (GD mice [10]): 5 | M protein (number of mice with monoclonal paraprotein or oligoclonal immunoglobulin secretion) (GD mice [10]; listed as GENZ 112638): five | IC50 [11]: 24 nM | inhibition of 1-O-acylceramide synthase [12]: does not inhibit 1-O-acylceramide synthase | intracellular ceramide levels (intracellular ceramide): does not inhibit 1-O-acylceramide synthase or increase intracellular ceramide levels | inhibitory properties towards glycosidases and other enzymes involved in sphingolipid metabolism [13]: minimal inhibitory properties | glucosylceramide in tissues ([14]; 10 week-old and 7 month-old mice): dose-dependent reduction | infiltration of abnormal macrophages in tissues [14]: decreased infiltration | key clinical manifestations of the disease [15]: clearly improved | AKT protein kinase-mTOR signaling and cell-cycle control [16]: repress | safety and tolerability [17]: safe and tolerable | Ki-67 staining (proliferation marker), spleen (GD mice [18]; GD mice treated for 10 months, listed as Genz-112638): less evident; also recorded: decreased population of lymphoid cells | lipid-engorged macrophages in tissue sections (GD mice [18]; GD mice, liver and spleen): fewer lipid-engorged macrophages | pathological macrophages staining for the Mac 3 antigen (GD mice [18]; tissues of GD mice, listed as GENZ 112638): markedly decreased or absent; also recorded: prevented the florid appearance of pathological macrophages | cellularity of the spleens (GD mice [18]; treated Gaucher mice): slight decrease | plasma-cell (CD138+) infiltration in the red pulp of the spleen (GD mice [18]; listed as GENZ 112638): less evident | plasma-cell (CD138+) infiltration in the red pulp of the spleen (GD mice [18]; listed as Genz-112638): decreased number of CD138^+ lymphocytes | inflammatory changes in the liver, lungs and kidneys (GD mice [18]; treated versus untreated GD mice): reduced or absent | splenic architecture (H&E; B220/CD3 staining) (GD mice [18]; treated versus untreated GD mice, listed as GENZ 112638): preservation of the splenic architecture | splenic architecture (H&E; B220/CD3 staining) (GD mice [18]; treated versus untreated GD mice, listed as Genz-112638): preserved white pulp architecture | spleen and liver weights (GD mice [18]; treated versus untreated Gaucher mice): did not differ
